Results as given in patent US11618747B2, “LXR modulators with bicyclic core moiety” (OrsoBio, Inc., priority 2018, dated 2023).
pEC50: −log10 of the molar value.

Experiments:
full length (FL) LXRβ = target: T1, full length (FL) LXRβ (Homo sapiens, UniProt P55055, DUP175-175); assay: LXR Gal4 reporter transient transfection assay (FL-M2H Gal4β); format: cell-based; details: HEK293 cells, full length LXRβ; read-out: FL-M2H Gal4β (EC50 range)
T1 construct: the full length (FL) proteins of LXRα (amino acids 1-447); NP005684; NP009052; expressed in transfected cells; host or cells: HEK293
T1 sequence (P55055 with tags, fused parts or gaps DUP175-175): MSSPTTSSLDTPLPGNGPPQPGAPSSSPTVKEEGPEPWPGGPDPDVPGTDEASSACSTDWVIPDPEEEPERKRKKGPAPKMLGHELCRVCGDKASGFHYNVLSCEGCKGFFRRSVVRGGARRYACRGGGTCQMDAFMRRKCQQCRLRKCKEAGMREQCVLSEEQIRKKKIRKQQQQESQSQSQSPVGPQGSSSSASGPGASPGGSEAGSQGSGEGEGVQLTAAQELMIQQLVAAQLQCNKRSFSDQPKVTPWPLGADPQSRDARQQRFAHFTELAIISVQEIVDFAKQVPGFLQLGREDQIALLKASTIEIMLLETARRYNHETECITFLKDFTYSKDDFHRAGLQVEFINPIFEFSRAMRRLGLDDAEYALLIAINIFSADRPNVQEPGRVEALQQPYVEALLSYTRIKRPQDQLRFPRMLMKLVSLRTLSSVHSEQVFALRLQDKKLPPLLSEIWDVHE
Description: (§1) The tested compounds were usually dissolved, tested and stored as 20 mM stock solutions in DMSO. Since sulfonyl acetic acid derivatives tend to decarboxylate under these conditions, these stock solutions were prepared, tested and stored as 20 mM DMSO stock solutions containing 100 mM trifluoroacetic Acid (5 equivalents). Sulfonyl acetic acid derivatives are shelf stable as solid at rt for long time as reported by Griesbrecht et al. (Synlett 2010:374) or Faucher et al. (J. Med. Chem. 2004; 47:18).
(§2) LXR Gal4 Reporter Transient Transfection Assays
(§3) LXRα and LXRβ activity status was determined via detection of interaction with coactivator and corepressor proteins in mammalian two-hybrid experiments (M2H). For this, via transient transfection the full length (FL) proteins of LXRα (amino acids 1-447; NP005684; SEQ ID NO:1) or LXRβ-(amino acids 1-461; NP009052; SEQ ID NO:2) or the ligand-binding domains (LBD) of LXRα (amino acids 155-447 SEQ ID NO:3) or LXRβ (amino acids 156-461; SEQ ID NO:4) were expressed from pCMV-AD (Stratagene) as fusions to the transcriptional activation domain of NFkB. As cofactors, domains of either the steroid receptor coactivator 1 (SRC1; amino acids 552-887; SEQ ID NO:5) or of the corepressor NCoR (amino acids 1906-2312; NP006302; SEQ ID NO:6) were expressed as fusions to the DNA binding domain of the yeast transcription factor GAL4 (from pCMV-BD; Stratagene). Interaction was monitored via activation of a coexpressed Firefly Luciferase Reporter gene under control of a promoter containing repetitive GAL4 response elements (vector pFRLuc; Stratagene). Transfection efficiency was controlled via cotransfection of constitutively active pRL-CMV Renila reniformis luciferase reporter (Promega). HEK293 cells were grown in minimum essential medium (MEM) with 2 mM L-glutamine and Earle's balanced salt solution supplemented with 8.3% fetal bovine serum, 0.1 mM non-essential amino acids, 1 mM sodium pyruvate, at 37° C. in 5% CO2. 3.5×10^4 cells/well were plated in 96-well cell culture plates in growth medium supplemented with 8.3% fetal bovine serum for 16-20 h to ˜90% confluency. For transfection, medium was taken off and LXR and cofactor expressing plasmids as well as the reporter plasmids are added in 30 μL OPTIMEM/well including polyethylene-imine (PEI) as vehicle. Typical amounts of plasmids transfected/well: pCMV-AD-LXR (5 ng), pCMV-BD-cofactor (5 ng), pFR-Luc (100 ng), pRL-CMV (0.5 ng). Compound stocks were prepared in DMSO, prediluted in MEM to a total volume of 120 μL, and added 4 h after addition of the transfection mixture (final vehicle concentration not exceeding 0.2%). Cells were incubated for additional 16 h, lysed for 10 min in 1× Passive Lysis Buffer (Promega) and Firefly and Renilla luciferase activities were measured sequentially in the same cell extract using buffers containing D-luciferine and coelenterazine, respectively. Measurements of luminescence were done in a BMG-luminometer.

full length (FL) LXRα = target: T2, full length (FL) LXRα (Homo sapiens, UniProt Q13133); assay: LXR Gal4 reporter transient transfection assay (FL-M2H Gal4α); format: cell-based; details: HEK293 cells, full length LXRα; read-out: FL-M2H Gal4α (EC50 range)
T2 construct: the full length (FL) proteins of LXRα (amino acids 1-447); NP005684; expressed in transfected cells; host or cells: HEK293
T2 sequence (Q13133 1-447): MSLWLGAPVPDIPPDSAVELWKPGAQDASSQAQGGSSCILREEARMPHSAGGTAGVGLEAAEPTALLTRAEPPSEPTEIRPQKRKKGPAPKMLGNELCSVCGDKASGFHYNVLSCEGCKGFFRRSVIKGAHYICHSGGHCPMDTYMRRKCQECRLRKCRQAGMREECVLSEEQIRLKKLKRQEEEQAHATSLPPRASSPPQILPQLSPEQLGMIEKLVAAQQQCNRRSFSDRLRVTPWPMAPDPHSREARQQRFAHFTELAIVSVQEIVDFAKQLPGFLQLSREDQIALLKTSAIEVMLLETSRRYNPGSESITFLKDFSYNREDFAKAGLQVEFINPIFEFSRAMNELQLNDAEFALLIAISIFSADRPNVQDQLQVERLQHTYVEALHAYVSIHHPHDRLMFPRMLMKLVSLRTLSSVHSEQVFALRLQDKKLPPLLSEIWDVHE
Description: as §1, §2, §3

[1] = target: T3, LXRβ ligand-binding domain (Homo sapiens, UniProt P55055, DUP175-175); assay: TR-FRETβ activity assay (NCoA3 coactivator peptide recruitment); format: biochemical; details: TR-FRET, 1 μM 24(S)-25-epoxycholesterol prestimulation; read-out: FRETβ (EC50 range)
T3 construct: amino acids 156-461; NP009052; made in house; host or cells: E. coli
T3 sequence (P55055 with tags, fused parts or gaps DUP175-175 limits assumed): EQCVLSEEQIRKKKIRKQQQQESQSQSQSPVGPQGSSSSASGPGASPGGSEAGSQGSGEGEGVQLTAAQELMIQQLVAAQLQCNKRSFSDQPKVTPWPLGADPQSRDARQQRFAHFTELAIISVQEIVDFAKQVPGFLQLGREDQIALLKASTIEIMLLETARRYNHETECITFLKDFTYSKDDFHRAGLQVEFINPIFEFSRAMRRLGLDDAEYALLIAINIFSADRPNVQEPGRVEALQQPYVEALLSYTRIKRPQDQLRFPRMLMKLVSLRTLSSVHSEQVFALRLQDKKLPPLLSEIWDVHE
Description: as §1
Recombinant GST-LXRPβ ligand-binding domain (LBD; amino acids 156-461; NP009052; SEQ ID NO:4) was expressed in E. coli and purified via gluthatione-sepharose affinity chromatography. N-terminally biotinylated NCoA3 coactivator peptide (SEQ ID NO:7) was chemically synthesized (Eurogentec). Assays were done in 384 well format (final assay volume of 25 μL/well) in a Tris/HCl buffer (pH 6.8) containing KCl, bovine serum albumin, Triton-X-100 and 1 μM 24(S)-25-epoxycholesterol as LXR-prestimulating agonist. Assay buffer was provided and test articles (potential LXR inverse agonists) were titrated to yield final assay concentrations of 50 μM, 16.7 μM, 5.6 μM, 1.9 μM, 0.6 μM, 0.2 μM, 0.07 μM, 0.02 μM, 0.007 μM, 0.002 μM with one vehicle control. Finally, a detection mix was added containing anti GST-Tb cryptate (CisBio; 610SAXLB) and Streptavidin-XL665 (CisBio; 610SAXLB) as fluorescent donor and acceptor, respectively, as well as the coactivator peptide and LXRβ-LBD protein (SEQ ID NO:4). The reaction was mixed thoroughly, equilibrated for 1 h at 4° C. and vicinity of LXRβ and coactivator peptide was detected by measurement of fluorescence in a VictorX4 multiplate reader (PerkinElmer Life Science) using 340 nm as excitation and 615 and 665 nm as emission wavelengths. Assays were performed in triplicates.
Final Assay Concentrations of Components:
240 mM KCl, 1 μg/μL BSA, 0.002% Triton-X-100, […] anti GST-Tb cryptate, 2.5 ng/μL Streptavidin-XL665, coactivator peptide (400 nM), LXRβ protein (530 μg/mL, i.e. 76 nM).

Row | Structure (SMILES) | pEC50 (full length (FL) LXRβ) | pEC50 (full length (FL) LXRα) | pEC50 [1]
1 | COCc1sccc1-c1c(-c2cccc(N3CC(C(=O)O)C3)c2)n(S(=O)(=O)c2ccc(C)cc2)c2ccc(F)cc12 [3/6] | 6.00 to 7.00 | 6.00 to 7.00 | 5.00 to 6.00
2 | CCc1ccc(S(=O)(=O)n2c(-c3cccc(N4CC(C(=O)O)C4)c3)c(-c3ccsc3C#N)c3cc(F)ccc32)cc1 [3/10] | > 7.00 | 6.00 to 7.00 | 6.00 to 7.00
3 | N#Cc1sccc1-c1c(-c2cccc(N3CC(C(=O)O)C3)c2)n(S(=O)(=O)c2ccc3c(c2)CCC3)c2ccc(F)cc12 [3/12] | > 7.00 | > 7.00 | 6.00 to 7.00
4 | N#Cc1sccc1-c1c(-c2cccc(N3CC(C(=O)O)C3)c2)n(S(=O)(=O)c2ccc3ccccc3c2)c2ccc(F)cc12 [3/13] | > 7.00 | > 7.00 | 5.00 to 6.00
5 | Cc1ccc(S(=O)(=O)n2c(-c3cccc(N4CC(C(=O)O)C4)c3)c(-c3ccsc3C#N)c3cc(F)ccc32)c(F)c1 [3/14] | 6.00 to 7.00 | 6.00 to 7.00 | 5.00 to 6.00
6 | CC1CCN(S(=O)(=O)n2c(-c3cccc(-c4ccc(C(=O)O)cc4Cl)c3)c(-c3ccsc3C#N)c3cc(F)ccc32)CC1 [3/21] | > 7.00 | > 7.00 | 6.00 to 7.00
7 | [2H]c1c([2H])c(S(=O)(=O)n2c(-c3cccc(-c4ccc(C(=O)O)cc4Cl)c3)c(-c3ccsc3C#N)c3cc(F)ccc32)c([2H])c([2H])c1C([2H])([2H])[2H] [3/22] | > 7.00 | > 7.00 | > 7.00
8 | Cc1cc(S(=O)(=O)n2c(-c3cccc(-c4ccc(C(=O)O)cc4Cl)c3)c(-c3ccsc3C#N)c3cc(F)ccc32)ccc1F [3/23] | > 7.00 | > 7.00 | 6.00 to 7.00
9 | Cc1ccc(S(=O)(=O)n2c(-c3cccc(N4CC(C(=O)O)C4)c3)c(-c3sccc3C#N)c3cc(F)ccc32)cc1 [3/25] | > 7.00 | 6.00 to 7.00 | 5.00 to 6.00
10 | Cc1ccc(S(=O)(=O)n2c(-c3cccc(N4CC(C(=O)O)C4)c3)c(-c3ccoc3C#N)c3cc(F)ccc32)cc1 [3/26] | > 7.00 | 6.00 to 7.00 | 5.00 to 6.00
11 | Cc1ccc(S(=O)(=O)n2c(-c3cccc(N4CC(C(=O)O)C4)c3)c(-c3ccsc3CCO)c3cc(F)ccc32)cc1 [3/27] | 6.00 to 7.00 | 6.00 to 7.00 | 5.00 to 6.00
12 | Cc1ccc(S(=O)(=O)n2c(-c3cccc(N4CC(C(=O)O)C4)c3)c(-c3ccsc3C(F)(F)F)c3cc(F)ccc32)cc1 [3/30] | > 7.00 | > 7.00 | 6.00 to 7.00
13 | Cc1ccc(S(=O)(=O)n2c(-c3cccc(N4CC(C(=O)O)C4)c3)c(-c3ccccc3C3COC3)c3cc(F)ccc32)cc1 [3/31] | 6.00 to 7.00 | 6.00 to 7.00 | 6.00 to 7.00
14 | COc1ccc(S(=O)(=O)n2c(-c3cccc(N4CC(C(=O)O)C4)c3)c(-c3ccsc3C#N)c3cc(F)ccc32)cc1 [3/33] | > 7.00 | 6.00 to 7.00 | 5.00 to 6.00
15 | N#Cc1sccc1-c1c(-c2cccc(N3CC(C(=O)O)C3)c2)n(S(=O)(=O)c2ccc(C(F)(F)F)cc2)c2ccc(F)cc12 [3/34] | > 7.00 | 6.00 to 7.00 | 6.00 to 7.00
16 | N#Cc1sccc1-c1c(-c2cccc(N3CC(C(=O)O)C3)c2)n(S(=O)(=O)c2ccc(C(F)F)cc2)c2ccc(F)cc12 [3/35] | > 7.00 | 6.00 to 7.00 | 6.00 to 7.00
17 | CC1CCN(S(=O)(=O)n2c(-c3cccc(N4CC(C(=O)O)C4)c3)c(-c3ccsc3C#N)c3cc(F)ccc32)CC1 [3/36] | 6.00 to 7.00 | 6.00 to 7.00 | 5.00 to 6.00
18 | Cc1ccc(S(=O)(=O)n2c(-c3cccc(N4CC(C)(C(=O)O)C4)c3)c(-c3ccsc3C#N)c3cc(F)ccc32)cc1 [3/37] | > 7.00 | > 7.00 | 6.00 to 7.00
19 | Cc1ccc(S(=O)(=O)n2c(-c3cccc(N4CCC(C(=O)O)CC4)c3)c(-c3ccsc3C#N)c3cc(F)ccc32)cc1 [3/38] | > 7.00 | > 7.00 | 6.00 to 7.00
20 | Cc1ccc(S(=O)(=O)n2c(-c3cccc(C4CC(C(=O)O)C4)c3)c(-c3ccsc3C#N)c3cc(F)ccc32)cc1 (stereo not drawn) [3/39] | > 7.00 | 6.00 to 7.00 | 6.00 to 7.00
